# Earlier results in patent US9265822B2 (priority 2009, dated 2016).
# Tested on: 2009 H1N1 swine flu virus
row,Compound,resistance or susceptibility of the virus
1,NC12CC3CC(CC(C3)C1)C2 [amantadine],resistant
2,CCOC(=O)C1=C[C@@H](OC(CC)CC)[C@H](NC(C)=O)[C@@H](N)C1 [oseltamivir],susceptible
3,CC(N)C12CC3CC(CC(C3)C1)C2 (stereo not shown) [rimantadine],resistant
4,CC(=O)N[C@H]1[C@H]([C@H](O)[C@H](O)CO)OC(C(=O)O)=C[C@@H]1N=C(N)N [zanamivir],susceptible
